Source: US20210322422A1, “USE OF AKT INHIBITORS IN OPHTHALMOLOGY” (Hoffmann-La Roche Inc., priority 2018, published 2021)
Entries after “also recorded” stand apart in the source; their conditions may differ.

Assays:
Assay type in all cases: in vivo, mouse
Cryba1 cKO mice [1] = assay: ELISA of CXCL1 and IFNλ in RPE-choroid after intravitreal injection; details: versus age-matched vehicle and untreated
Protocol: The RPE choroid complexes harvested from freshly enucleated mouse eyes were kept on ice and then homogenized in 300 μL of complete extraction buffer (Abcam, USA) per 5 mg of tissue. The homogenized tissue was allowed to stay in constant agitation for 2 h at 4° C., centrifuged at 13,000 rpm at 4° C. for 20 min. The supernatants were aliquoted and stored at −80° C. and were subsequently used to perform ELISA to evaluate the levels of IFNλ, and CXCL1, as previously described^13.
(§1) Cryba1^fl/fl and Cryba1 cKO mice (Male, 12 months old; n=4) were anaesthetized by intraperitoneal injection of 0.15 ml of ketamine (2.5 mg/ml)+ xylazine (0.5 mg/ml) mixture. Topical anesthesia (proparacaine hydrochloride) was applied to the eye and pupils dilated with a drop of topical 2.5% phenylephrine hydrochloride ophthalmic solution. The eye was proptosed by slight depression of the lower lid with blunt curved forceps and washed with sterile saline. […] All instruments were sterilized with a steam autoclave. Bacitracin Ophthalmic ointment was applied postoperatively^6. Animals were euthanized with CO2 gas four weeks after the first injection and the retinas were harvested.

AKT2 (p-AKT2 S474) = assay: immunoblot of AKT2 phosphorylation in retinas after intravitreal injection; details: 1-year-old Cryba1 cKO mice
Protocol: SDS-PAGE and western blot analyses were performed as previously described^12. The primary antibodies were used at a dilution of 1:1000 whereas, all secondary antibodies were used at a dilution of 1:3000.
as §1

Cryba1 cKO mice [2] = assay: histological sections (H&E) of retina after intravitreal injection; details: 1 year old, versus vehicle
Protocol: as §1
For hematoxylin and eosin (H&E) staining, eyes from NOD-SCID mice (n=10) were enucleated and fixed initially in 2.5% glutaraldehyde for 72 h, followed by 10% buffered formalin. The eyes were embedded in methyl-methacrylate, sectioned and stained as previously described″.

Cryba1 cKO mice [3] = assay: flow cytometry estimation of percentage neutrophils in retina after intravitreal injection; details: male, 12 months old, intravitreal 500 uM, once weekly for three weeks, versus vehicle or untreated
Protocol: Mouse retinas were dissected from enucleated eyes and digested with 0.05% collagenase D at 37° C. for 30 min, teased with blunt end forceps and pipetted to release cells, passed through a 70 μm cell strainer, centrifuged at 1,300 g, 4° C. for 20 minutes^10. The entire pellet was used for staining with the FITC-tagged cell surface markers CD45, V450-tagged Ly6G and Alexa fluor 700-tagged CD11b (BD Pharmigen™, USA) at a concentration of 1 μg/ml in PBS containing 1% BSA for 1 h. Cells were washed and analyzed on a flow cytometer (BD Aria III, FACS DIVA software, BD Biosciences, USA and FlowJo software-version 7.6.5), SSC-A/CD45+(FITC) cells were manually gated and among this population of cells; % Ly6G+ and % CD11b+Ly6G+ cells were quantified.
as §1, with “Animals were euthanized with CO2 gas four weeks after the first injection and the retinas were harvested.” left out

With `NC1(Cc2ccc(Cl)cc2)CCN(c2ncnc3[nH]ccc23)CC1` [CCT128930] the “CXCL1 levels in RPE-choroid” value (Cryba1 cKO mice [1]) was “reduced levels”, the “IFNλ levels in RPE-choroid” value (Cryba1 cKO mice [1]) was “reduced levels” and the “levels of total AKT in retina” value (AKT2 (p-AKT2 S474); immunoblot) was “levels of total AKT did not change”. For the same molecule, the “levels of pAKT2 (p-AKT2 S474) in retina” value (AKT2 (p-AKT2 S474); immunoblot densitometry, versus vehicle) was “significantly decreased the levels of pAKT2; also recorded: reduced”, the “retinal structure / early RPE abnormalities (H&E)” value (Cryba1 cKO mice [2]) was “exhibited normal structure; also recorded: reverses these early RPE abnormalities” and the “infiltrating neutrophils (% Ly6G+ and % CD11b+Ly6G+ cells) in retina” value (Cryba1 cKO mice [3]) was “decrease in infiltrating neutrophils; also recorded: significantly fewer neutrophils in the retinas”.
